The values that follow come from ChEMBL document CHEMBL1201862, “PubChem BioAssay data set” (2004).

Among the test systems are M19-MEL; SNB-78; LXFL 529; KM-20L2; DLD-1; XF498; DMS-273; RXF 631; HOP-18.
Holding throughout (test): NCI-60 cell line screen, 48 h

SMILES strings stand for the structures.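 Where inhibition never reached the appropriate level, the endpoint shown equals the highest concentration tested. Otherwise, values were interpolated linearly from a five-concentration, 48-hour dose response in 96-well plates. The concentration for 50% growth inhibition is given as GI50.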 Activity calls are given as the source filed them. Rule as the data show it: active = GI50 up to about 1.1 µM and inactive = higher. Some results are limits rather than exact numbers.

Turning to `Nc1ccc(C(=O)NN2C(=O)C(Cl)C2c2ccc(O)cc2)cc1` (stereo not given), the GI50 in the assay on M19-MEL is 20.1 µM (inactive); in the assay on SNB-78 it was 11.9 µM (inactive); in the assay on LXFL 529, 17.8 µM (inactive); in the assay on KM-20L2 it was 19.9 µM (inactive); in the assay on DLD-1 it was 18.1 µM (inactive); in the assay with XF498, 14.7 µM (inactive). The GI50 in the assay on DMS-273 was 17.2 µM (inactive).

As for `CC(=O)C(CN(C(C)C)C(C)C)C(c1ccccc1)c1c(O)c2ccccc2oc1=O` (stereo not given), the GI50 in the assay with M19-MEL is > 100 µM (inactive); in the assay with SNB-78 it was 97.1 µM (inactive); with RXF 631 it was > 100 µM (inactive); with LXFL 529 it was > 100 µM (inactive); with KM-20L2 it was > 100 µM (inactive); in the assay with DLD-1, > 100 µM (inactive). Further, the GI50 in the assay with HOP-18 and with DMS-273 was > 100 µM (inactive) throughout.

As to `COc1ccc(C2=C(Cl)c3cc(OC)c(OC)cc3C2)cc1OC`, the GI50 in the assay on M19-MEL, in the assay on SNB-78, with LXFL 529, in the assay with KM-20L2, in the assay with DLD-1 and in the assay with XF498 was > 100 µM (inactive) each time. The GI50 in the assay with HOP-18 and in the assay with DMS-273 was > 100 µM (inactive) in each case.

Consider `COc1ccc(CCNCc2cccc(OC)c2OC)cc1OC`, for which the GI50 with M19-MEL, with SNB-78, in the assay on RXF 631, with LXFL 529, with KM-20L2 and in the assay on DLD-1 was > 100 µM (inactive) each time. Besides, the GI50 in the assay on XF498 and in the assay on DMS-273 was > 100 µM (inactive) each time.

As to `CCOC(=O)C1S/C(=N\c2ccc(C)c(C)c2)N=C1C` (stereo not given), the GI50 with M19-MEL, with LXFL 529, in the assay on KM-20L2, with DLD-1, with XF498 and in the assay on HOP-18 was > 100 µM (inactive) throughout. In the assay with DMS-273, the GI50 is > 100 µM (inactive).

For `CC1(C)C=C(N2CCN(C3=CC(C)(C)NC(C)(C)C3)CC2)CC(C)(C)N1`, the GI50 in the assay with M19-MEL, in the assay on SNB-78, with LXFL 529, in the assay on KM-20L2, with DLD-1 and in the assay with XF498 was > 100 µM (inactive) in each case. The GI50 in the assay with HOP-18 and in the assay with DMS-273 was > 100 µM (inactive) in each case.

In the case of `COC(=O)C1=C(c2cc(OC)c(OC)c(OC)c2)OC(c2cc(OC)c(OC)c(OC)c2)C1` (stereo not given), the GI50 with M19-MEL is 26.7 µM (inactive); in the assay with SNB-78 it was 51.8 µM (inactive); with LXFL 529 it was 22.4 µM (inactive); with KM-20L2 it was 22.5 µM (inactive); with DLD-1, 21.9 µM (inactive); in the assay with XF498, 24.4 µM (inactive). For the same compound, the figures for the GI50 with HOP-18 and with DMS-273 were 19.5 µM (inactive) and 22.5 µM (inactive), respectively.

With `COc1c(CC=C(C)C)c(O)c(C(CC(C)C)c2c(O)c(CC=C(C)C)c(O)c(C(C)=O)c2O)c(O)c1C(C)=O` (stereo not given), the GI50 in the assay with M19-MEL was 1.43 µM (inactive); in the assay with SNB-78, 1.7 µM (inactive); in the assay on RXF 631, 0.425 µM (active); with DLD-1, 0.38 µM (active); with XF498, 0.596 µM (active); in the assay with HOP-18, 0.551 µM (active). Besides, the GI50 in the assay with DMS-273 was 0.333 µM (active).

For the compound `Cc1cc(Cl)ccc1NC(=O)CCCC(=O)C(C(=O)c1ccccc1)c1ccccc1` (stereo not given), the GI50 in the assay on M19-MEL, in the assay with SNB-78, in the assay with RXF 631, in the assay on LXFL 529, with KM-20L2 and in the assay with DLD-1 was > 100 µM (inactive) throughout. Besides, the GI50 in the assay with DMS-273 is > 100 µM (inactive).

Consider `C[C@]12CC[C@H](O)CC1=CC[C@@H]1C2CC[C@]2(C)C(=O)NC(=O)CC12` (stereo not given in full), for which the GI50 in the assay with M19-MEL was > 100 µM (inactive); in the assay on SNB-78, > 100 µM (inactive); in the assay with RXF 631, 76.7 µM (inactive); with LXFL 529, 74.3 µM (inactive); in the assay on KM-20L2 it was > 100 µM (inactive); in the assay with DLD-1 it was 44.6 µM (inactive). The GI50 is > 100 µM (inactive) with XF498, > 100 µM (inactive) in the assay on HOP-18 and 56.9 µM (inactive) in the assay with DMS-273.

In the case of `CC1COC(C)(C)P(=O)(c2ccccc2)C1` (stereo not given), the GI50 in the assay on M19-MEL, in the assay on SNB-78, with LXFL 529, in the assay with KM-20L2, in the assay on DLD-1 and in the assay with XF498 was > 100 µM (inactive) throughout. Moreover, the GI50 with HOP-18 and in the assay with DMS-273 was > 100 µM (inactive) in each case.

As for `Cc1ccc(S(=O)OC23CC4CC(CC(C4)C2)C3)cc1` (stereo not given), the GI50 is > 100 µM (inactive) in the assay with M19-MEL; > 100 µM (inactive) in the assay with SNB-78; 72.8 µM (inactive) in the assay on RXF 631; > 100 µM (inactive) with LXFL 529; > 100 µM (inactive) in the assay on KM-20L2; > 100 µM (inactive) with DLD-1. For the same compound, the GI50 in the assay with XF498, in the assay with HOP-18 and in the assay with DMS-273 was > 100 µM (inactive) in each case.

With `Cc1cccc2c1c1ccc3c(c1n2C)C(=O)C=CC3=O`, the GI50 with M19-MEL was 5.33 µM (inactive); in the assay with SNB-78 it was 16.2 µM (inactive); in the assay with RXF 631, 6.79 µM (inactive); with LXFL 529, 2.01 µM (inactive); in the assay with KM-20L2, 16.2 µM (inactive); with DLD-1, 2.28 µM (inactive). The figures for the GI50 in the assay on HOP-18 and in the assay with DMS-273 were 10 µM (inactive) and 3.11 µM (inactive), respectively.

On to `Cc1ccc(/C=N\NC2c3cc(Cl)ccc3Nc3nc(O)nc(C)c32)cc1` (stereo not given), for which the GI50 in the assay with M19-MEL, in the assay on SNB-78, in the assay on LXFL 529, in the assay with KM-20L2, in the assay on DLD-1 and with XF498 was > 100 µM (inactive) in each case. In the assay on DMS-273, the GI50 is 91.4 µM (inactive).

In the case of `C=C(c1ccccc1)[C@@]1(O)CCCC[C@H]1NC(c1ccccc1)c1ccccc1`, the GI50 was 15 µM (inactive) in the assay with M19-MEL; 19.7 µM (inactive) with SNB-78; 11.1 µM (inactive) with LXFL 529; 13.8 µM (inactive) with KM-20L2; 14.6 µM (inactive) in the assay on DLD-1; 19.9 µM (inactive) with HOP-18. Also, in the assay on DMS-273, the GI50 is 13.1 µM (inactive).

Turning to `COc1ccc(Cn2c(C)nc3c2C(=O)c2ccccc2C3=O)cc1`, the GI50 in the assay with M19-MEL is 7.91 µM (inactive); in the assay with SNB-78 it was 16.1 µM (inactive); with LXFL 529, 4.31 µM (inactive); with KM-20L2, 11.6 µM (inactive); in the assay with DLD-1, 4.67 µM (inactive); in the assay with XF498 it was 11.7 µM (inactive). Moreover, the GI50 with DMS-273 was 3.32 µM (inactive).

Consider `CC(=O)OCc1c2ccccc2c(C)c2c1cc(F)c1ccccc12`, for which the GI50 is 14.3 µM (inactive) in the assay with SNB-78; 25.8 µM (inactive) with RXF 631; 29.6 µM (inactive) with LXFL 529; 28.8 µM (inactive) in the assay on KM-20L2; 14.8 µM (inactive) with DLD-1; 16.6 µM (inactive) in the assay on XF498. For the same compound, the results for the GI50 with HOP-18 and in the assay on DMS-273 were 24.6 µM (inactive) and 10.4 µM (inactive), respectively.

In the case of `COc1ccc2c(c1)[n+]([O-])c(C(=O)CC(=O)C(=O)Nc1cccc(C)c1C)c(C)[n+]2[O-]`, the GI50 with M19-MEL, in the assay with SNB-78, in the assay on RXF 631, in the assay on LXFL 529, with KM-20L2 and in the assay on DLD-1 was > 100 µM (inactive) throughout. Further, the GI50 in the assay on XF498 and with HOP-18 was > 100 µM (inactive) each time.

With `CCOC(=O)CCC(=O)C1c2cccc(O)c2C(=O)c2c(O)cc(C)cc21` (stereo not given), the GI50 in the assay on M19-MEL is 0.637 µM (active); in the assay with SNB-78, 0.542 µM (active); in the assay with RXF 631 it was 0.771 µM (active); in the assay with LXFL 529, 0.643 µM (active); in the assay on KM-20L2, 1.83 µM (inactive); in the assay with DLD-1, 1.21 µM (inactive). Further, the GI50 in the assay on XF498 is 0.211 µM (active); in the assay with HOP-18, 0.515 µM (active); with DMS-273, 0.785 µM (active).

For the compound `CCOC(=O)COc1ccccc1/C=C1\CCC(CN(C)C)C1=O` (stereo not given), the GI50 with M19-MEL was 3.18 µM (inactive); in the assay on SNB-78, 21.2 µM (inactive); with RXF 631 it was 17.9 µM (inactive); with LXFL 529, 2.45 µM (inactive); with KM-20L2, 11.6 µM (inactive); in the assay with DLD-1 it was 3.99 µM (inactive). The results for the GI50 in the assay with HOP-18 and with DMS-273 were 23.2 µM (inactive) and 2.91 µM (inactive), respectively.

Consider `O=C1OC(Cc2ccccc2)(N2CCCC2=O)C1c1ccccc1` (stereo not given), for which the GI50 in the assay on M19-MEL is > 100 µM (inactive); in the assay with SNB-78, > 100 µM (inactive); in the assay with LXFL 529, 78.3 µM (inactive); with KM-20L2, > 100 µM (inactive); in the assay on DLD-1, 55.3 µM (inactive); in the assay with XF498, 20.3 µM (inactive).

Turning to `CC(=O)N1CCN(c2ccc(OCC3COC(Cn4ccnc4)(c4ccc(Cl)cc4Cl)O3)cc2)CC1` (stereo not given) [KETOCONAZOLE], the GI50 with M19-MEL was 21.4 µM (inactive); in the assay with LXFL 529, 26.4 µM (inactive); with KM-20L2 it was 32.7 µM (inactive); with DLD-1, 33 µM (inactive); in the assay with HOP-18 it was > 100 µM (inactive); in the assay on DMS-273, 20.5 µM (inactive).

In the case of `CCOC(=O)/C(=C\c1ccc(OCc2ccccc2)c(OC)c1)C(=O)c1ccccc1`, the GI50 in the assay on M19-MEL is 22.1 µM (inactive); with SNB-78, 31.3 µM (inactive); in the assay on KM-20L2, 19.5 µM (inactive); in the assay on XF498, 18.1 µM (inactive).

Turning to `CC(CC[C@@H](C)C1CCC2[C@@H]3CC(O)C4CC(O)[C@@H](O)C[C@]4(C)C3CC[C@@]21C)C(C)(C)C` (stereo not given in full), the GI50 with M19-MEL, in the assay with SNB-78, in the assay on LXFL 529, in the assay with KM-20L2, with DLD-1 and in the assay on XF498 was > 100 µM (inactive) each time. The GI50 with HOP-18 and with DMS-273 was > 100 µM (inactive) throughout.
